Usually EC50 stands for the midpoint of the concentration-response curve.

We go through three compounds from patent publication US6716842B2, “Antidiabetic agents” (Warner-Lambert Company, LLC, priority 2002, dated 2004).

For this assay, the system named is PPAR-γ (promoter/enhancer of the murine aP2 gene in 3T3-L1 cells). Nature of the assay: 3T3-L1 transient reporter assay (AD3T3L1). The note with it: for % Max BRL: maximal effect relative to reference BRL 49653. It counts as cell-based. The procedure: TEST E—3T3-L1 TRANSIENT REPORTER ASSAY
This assay is used to determine the potential of putative PPAR-γ ligands to activate the promoter/enhancer of the murine aP2 gene. 3T3-L1 preadipocytes are cultured on collagen coated plates in DMEM containing 10% Calf serum for 48 hours post-confluence. The cells are then cultured for approximately 3 days in DMEM containing 10% Fetal Bovine Serum (FBS), 0.5-mM methyl isobutylxanthine, 0.25 μM dexamethasone, and 1 μg/ml of insulin. Cells are detached from the plates with Trypsin-EDTA and resuspended in Phosphate Buffered Saline (PBS).
The reporter construct used in this assay is comprised of the −5.4 Kb 5′ flanking region of the murine aP2 gene inserted into the cloning site of the TKpGL3 luciferase vector. Transfection efficiency is controlled by co-transfection of the reference plasmid CMV-β-galactosidase. The reporter construct and the reference plasmid are transiently co-transfected into the cells by electroporation. The transfected cells are plated into collagen coated 96-well plates and cultured overnight. Cells are then incubated for 48 hours with the test compounds and then harvested. The lysates are measured for luciferase and β-galactosidase activities using the Dual-Light® luciferase kit from Tropix on a EG&G Berthold MicroLumat LB96P luminometer.

Where two headings read alike, the source gives them in different places.

For the compound “3-{2-Hydroxy-4-[2-(5-methyl-2-phenyl-oxazol-4-yl)-ethoxy]-phenyl}-propionic acid ethyl ester”, the EC50 was determined as 5.9 µM and the “% Max BRL” value worked out at 74%.
As for `Cc1oc(-c2ccccc2)nc1CCOc1ccc(CCC(=O)O)c(OCc2ccccn2)c1` [3-[4-[2-(5-Methyl-2-phenyl-oxazol-4-yl)-ethoxy]-2-(pyridin-2-ylmethoxy)-phenyl]-propionic acid], the “% Max BRL” value stood at 108%. In addition, the 50% effective concentration (EC50) (Mus musculus) was determined as 0.103 µM.
Regarding `Cc1oc(-c2ccccc2)nc1CCOc1ccc(CCC(=O)O)c(O)c1` [3-[4-[2-(5-Methyl-2-phenyl-oxazol-4-yl)-ethoxy]-2-(hydroxy)-phenyl]-propionic acid], the “% Max BRL” value stood at 70%. Besides, for the setting “Mus musculus”, the 50% effective concentration (EC50) was 3.4 µM.
